Source: ChEMBL document CHEMBL1201862, “PubChem BioAssay data set” (2004)
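48-hour exposure; five concentrations; linearly interpolated endpoints. The concentration for 50% growth inhibition is given as GI50.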 Active and inactive are the calls of the source. Cut-off read from the data, not from the text of the source: active = GI50 up to about 1.1 µM and inactive = higher.

Legend:
Test in all cases: DTP human tumour cell line panel, 48 h
BT-549 = tested on: BT-549
CCRF-CEM = tested on: CCRF-CEM
EKVX = tested on: EKVX
HCT-116 = tested on: HCT-116
K562 = tested on: K562
M14 = tested on: M14
MDA-MB-231 = tested on: MDA-MB-231
MDA-N = tested on: MDA-N
NCI-H460 = tested on: NCI-H460
NCI-H522 = tested on: NCI-H522
OVCAR-4 = tested on: OVCAR-4
PC-3 = tested on: PC-3
SW-620 = tested on: SW-620
TK-10 = tested on: TK-10
UACC-257 = tested on: UACC-257
UACC-62 = tested on: UACC-62
CAKI-1 = tested on: CAKI-1
MCF7 = tested on: MCF7
SK-MEL-5 = tested on: SK-MEL-5
T47D = tested on: T47D

| Compound | GI50 (BT-549) | GI50 (CCRF-CEM) | GI50 (EKVX) | GI50 (HCT-116) | GI50 (K562) | GI50 (M14) | GI50 (MDA-MB-231) | GI50 (MDA-N) | GI50 (NCI-H460) | GI50 (NCI-H522) | GI50 (OVCAR-4) | GI50 (PC-3) | GI50 (SW-620) | GI50 (TK-10) | GI50 (UACC-257) | GI50 (UACC-62) | GI50 (CAKI-1) | GI50 (MCF7) | GI50 (SK-MEL-5) | GI50 (T47D) |
| --- | --- | --- | --- | --- | --- | --- | --- | --- | --- | --- | --- | --- | --- | --- | --- | --- | --- | --- | --- | --- |
| O=C1CCC2(c3ccc(Cl)cc3)Nc3ccncc3N12 (centres undefined) | > 10 µM (inactive) | > 10 µM (inactive) | > 10 µM (inactive) | > 10 µM (inactive) | > 10 µM (inactive) | > 10 µM (inactive) | 0.00507 µM (active) | > 10 µM (inactive) | > 10 µM (inactive) | > 10 µM (inactive) | > 10 µM (inactive) | > 10 µM (inactive) | > 10 µM (inactive) | > 10 µM (inactive) | > 10 µM (inactive) | > 10 µM (inactive) |  |  |  |  |
| Cc1c(-c2ccccc2)[nH]c2cn[nH]c(=O)c12 | 75 µM (inactive) | 57.1 µM (inactive) | 34.6 µM (inactive) | > 100 µM (inactive) | 99.8 µM (inactive) | > 100 µM (inactive) | > 100 µM (inactive) | > 100 µM (inactive) | > 100 µM (inactive) | 86.1 µM (inactive) |  | 67.9 µM (inactive) | > 100 µM (inactive) | > 100 µM (inactive) | > 100 µM (inactive) | 59.2 µM (inactive) | > 100 µM (inactive) | 45.1 µM (inactive) | 67.9 µM (inactive) |  |
| CN(C)c1ccc(/C=C2\N=C(c3ccccc3)N(c3nc4ccc(Sc5ccccc5)cc4[nH]3)C2=O)cc1 | 34.9 µM (inactive) | 16.7 µM (inactive) | 40.7 µM (inactive) | 36.3 µM (inactive) | 26.4 µM (inactive) | 43.6 µM (inactive) | 49.1 µM (inactive) |  | 30 µM (inactive) | 29.2 µM (inactive) | 40.3 µM (inactive) | 39.1 µM (inactive) | 34.6 µM (inactive) | 23.5 µM (inactive) | 24.3 µM (inactive) | 22.5 µM (inactive) | 35.4 µM (inactive) | 30 µM (inactive) | 32.4 µM (inactive) | 44 µM (inactive) |
| N#Cc1nc(C(CO)N(Cc2ccccc2)C(=O)O)oc1N (centres undefined) | > 100 µM (inactive) |  | > 100 µM (inactive) | > 100 µM (inactive) | > 100 µM (inactive) | > 100 µM (inactive) | > 100 µM (inactive) |  | > 100 µM (inactive) | 12.4 µM (inactive) | > 100 µM (inactive) | > 100 µM (inactive) |  | > 100 µM (inactive) | > 100 µM (inactive) | > 100 µM (inactive) | > 100 µM (inactive) | > 100 µM (inactive) | > 100 µM (inactive) | > 100 µM (inactive) |
| Nc1ccc(-c2cssc2=S)cc1 | 36.1 µM (inactive) |  | 41.6 µM (inactive) | 42 µM (inactive) | 3.21 µM (inactive) | 75.7 µM (inactive) | 39.3 µM (inactive) | 30.4 µM (inactive) | 33.9 µM (inactive) | 26.9 µM (inactive) | 49.1 µM (inactive) | 41.9 µM (inactive) | 54.8 µM (inactive) | 40.6 µM (inactive) | 59.6 µM (inactive) | 26.9 µM (inactive) | 37.9 µM (inactive) | 52.1 µM (inactive) | 32.8 µM (inactive) |  |
| Ic1ncnc2c1ncn2C1CCCO1 (centres undefined) |  | > 100 µM (inactive) | > 100 µM (inactive) | > 100 µM (inactive) | > 100 µM (inactive) | > 100 µM (inactive) |  |  | > 100 µM (inactive) | > 100 µM (inactive) | > 100 µM (inactive) |  | > 100 µM (inactive) | > 100 µM (inactive) | > 100 µM (inactive) | > 100 µM (inactive) | > 100 µM (inactive) |  | > 100 µM (inactive) |  |
| Cc1ccc(C)n1-c1ccccc1C1SCCCS1 | > 100 µM (inactive) | 59.8 µM (inactive) | > 100 µM (inactive) | > 100 µM (inactive) | > 100 µM (inactive) | 57.1 µM (inactive) | 49.9 µM (inactive) | > 100 µM (inactive) | > 100 µM (inactive) | > 100 µM (inactive) | > 100 µM (inactive) | > 100 µM (inactive) | > 100 µM (inactive) | > 100 µM (inactive) | > 100 µM (inactive) | > 100 µM (inactive) | > 100 µM (inactive) | 37.3 µM (inactive) | > 100 µM (inactive) |  |
| CC(C)[Si](Oc1cc2c3c(ccc2c(O)c1[C@@H](C)CO[Si](C)(C)C(C)(C)C)C(C)(C)CCC3)(C(C)C)C(C)C |  | 43.4 µM (inactive) | > 100 µM (inactive) | > 100 µM (inactive) | 43.7 µM (inactive) | > 100 µM (inactive) | > 100 µM (inactive) | > 100 µM (inactive) | 78 µM (inactive) | 39.5 µM (inactive) | > 100 µM (inactive) | 74.6 µM (inactive) | > 100 µM (inactive) | > 100 µM (inactive) | 29.4 µM (inactive) | > 100 µM (inactive) | > 100 µM (inactive) | > 100 µM (inactive) | 23.8 µM (inactive) |  |
